This test has as its target T1, full length active recombinant SYK enzyme (Homo sapiens, UniProt P43405).
T1 construct: full length active recombinant SYK enzyme (Millipore, Calif.); purchased Millipore
The test is described as follows: Inhibition of Syk tyrosine phosphorylation activity (LANCE TR-FRET kinase assay). The test is classed as biochemical. An excerpt:
This example illustrates methods for evaluating the compounds of the invention, along with results obtained for such assays. The in vitro and in vivo human Syk activities of the inventive compounds can be determined by various procedures known in the art, such as a test for their ability to inhibit the activity of human plasma Syk. […] The IC50 value is the concentration (in nM) of the compound required to provide 50% inhibition of human Syk proteolytic activity.
Potency of candidate molecules for inhibiting Syk tyrosine phosphorylation activity is assessed by measuring the ability of a test compound to inhibit Syk-mediated tyrosine phosphorylation of a Syk-specific substrate.
SYK tyrosine phosphorylation activity is measured using the LANCE™ Technology developed by Perkin Elmer Life and Analytical Sciences (Boston, Mass.). LANCE™ refers to homogeneous time resolved fluorometry applications using techniques such as time-resolved fluorescence resonance energy transfer assay (TR-FRET) (see generally for procedures in Perkin Elmer Application Note—How to Optimize a Tyrosine Kinase Assay Using Time Resolved Fluorescence-Based LANCE Detection, wwww.perkinelmer.com/lifesciences). The assay principle involves detection of a phosphorylated substrate using energy transfer from a phosphospecific europium-labeled antibody to streptavidin-allophycocyanin as an acceptor.
To test the ability of candidate molecules to inhibit SYK tyrosine phosphorylation activity, molecules are reconstituted in 30% DMSO and serially diluted 1:3 with the final dilution containing DMSO in the absence of the candidate molecule. The final DMSO concentration in the assay is 3%. Kinase assays are performed as a two part reaction. The first reaction is a kinase reaction and which comprises of a candidate molecule, full length active recombinant SYK enzyme (Millipore, Calif.) and biotin-labeled SYK-specific substrate biotin-[…]-OH. The second reaction involves termination of the kinase reaction and the simultaneous addition of the detection reagents-europium-labeled anti-phosphotyrosine reagent (Eu-W1024-PY100, Perkin Elmer, Boston, Mass.) and Streptavidin-Allophycocyanin detection reagent (SA-APC, Prozyme, Calif.). The kinase reaction is performed in a black U-bottom 96-well microtitre plate. The final reaction volume is 50 μL and contains a final concentration of 1 nM active SYK enzyme, 550 nM SYK-substrate, and 100 μM ATP diluted in a buffer containing 50 mM Tris pH 7.5, 5 mM MgCl2, and 1 mM DTT. The reaction is allowed to proceed for 1 hour at room temperature. The quench buffer contains 100 mM Tris pH 7.5, 300 mM NaCl2, 20 mM EDTA, 0.02% Brij35, and 0.5% BSA. The detection reagents are added to the reaction mixture at the following dilutions-1:500 for Eu-W1024-PY100 and 1:250 for SA-APC. The kinase reaction is terminated by the addition of 50 μL quench buffer containing the detection reagents. The detection is allowed to proceed for 1 hr at room temperature. Detection of the phosphorlated substrate in the absence and presence of inhibitors is measured in the TR-FRET instrument, Analyst HT (Molecular Probes, Sunnyvale, Calif.) and the condition for measurements are set up using CriterionHost Release 2.0 (Molecular Probes, Sunnyvale, Calif.). The settings used are a follows: excitation 360 nm, emission 665-7.5 nm, beam splitter 350 nm 50/50, flash 100 pulses, delay 60 us, integration 400 us, z-height 2 mm. Inhibition of SYK-tyrosine kinase activity is calculated as the maximum response observed in the presence of inhibitor, compared to that in the absence of inhibitor. IC50s were derived by non-linear regression analysis.
For the compound `CC(C)C[C@@H](Nc1nc(Nc2cccc(-n3ccnc3)c2)c(C(N)=O)c(=O)[nH]1)C(N)=O` [Example 118, (R)-2-(1-amino-4-methyl-1-oxopentan-2-ylamino)-4-(3-(1H-imidazol-1-yl)phenylamino)-6-oxo-1,6-dihydropyrimidine-5-carboxamide], the IC50 fell in the range of 1 to 10 nM.
In the case of `CCNc1nc(Nc2cccc(C)c2)c(C(N)=O)c(OCCO)n1` [Example 75, 4-(m-toluidino)-2-(ethylamino)-6-(2-hydroxyethoxy)pyrimidine-5-carboxamide] it was above 1000 nM; in that of `CC(C)[C@H](CN)Nc1nc(Nc2cccc(-n3nccn3)c2)c(C(N)=O)c(=O)[nH]1` [Example 22, (R)-4-(3-(2H-1,2,3-triazol-2-yl)phenylamino)-2-(1-amino-3-methylbutan-2-ylamino)-6-oxo-1,6-dihydropyrimidine-5-carboxamide], 1 to 10 nM.
`CC(C)C[C@@H](Nc1nc(Nc2cccc(-c3ccncc3)c2)c(C(N)=O)c(=O)[nH]1)C(N)=O` [Example 112, (R)-2-(1-amino-4-methyl-1-oxopentan-2-ylamino)-6-oxo-4-(3-(pyridin-4-yl)phenylamino)-1,6-dihydropyrimidine-5-carboxamide]: the IC50 was in the range of 1 to 10 nM.
As to `CC[C@@H](Nc1nc(Nc2ccc3c(ccc[n+]3[O-])c2)c(C(N)=O)c(OC)n1)C(N)=O` [Example 17, (R)-6-(2-(1-amino-1-oxobutan-2-ylamino)-5-carbamoyl-6-methoxypyrimidin-4-ylamino)quinoline 1-oxide], the 50% inhibitory concentration (IC50) was 10 to 100 nM.
In the case of `CC(C)C[C@@H](Nc1nc(Nc2ccc(OC(F)(F)F)cc2)c(C(N)=O)c(=O)[nH]1)C(N)=O` [Example 91, (R)-2-(1-amino-4-methyl-1-oxopentan-2-ylamino)-4-(4-(trifluoromethoxy)phenylamino)-6-oxo-1,6-dihydropyrimidine-5-carboxamide] it was 1 to 10 nM; in that of `CC[C@@H](Nc1nc(Nc2ccc(OC)cc2)c(C(N)=O)c(=O)[nH]1)C(N)=O` [Example 90, (R)-2-(1-amino-1-oxobutan-2-ylamino)-4-(4-methoxyphenylamino)-6-oxo-1,6-dihydropyrimidine-5-carboxamide], 1 to 10 nM.
In the case of `Cc1cccc(Nc2nc(N[C@H](CC(C)C)C(N)=O)[nH]c(=O)c2C(N)=O)c1` [Example 9, (R)-2-(1-amino-4-methyl-1-oxopentan-2-ylamino)-6-oxo-4-(m-tolylamino)-1,6-dihydropyrimidine-5-carboxamide] it was 1 to 10 nM.
Then `CC[C@@H](Nc1nc(Nc2cccc(-c3ccccn3)c2)c(C(N)=O)c(=O)[nH]1)C(N)=O` [Example 41, (R)-2-(1-amino-1-oxobutan-2-ylamino)-6-oxo-4-(3-(pyridin-2-yl)phenylamino)-1,6-dihydropyrimidine-5-carboxamide], with 1 to 10 nM; and `CC(C)[C@@H](Nc1nc(Nc2ccc3ncsc3c2)c(C(N)=O)c(=O)[nH]1)C(N)=O` [Example 30], with below 1 nM; and `CC(C)C[C@@H](Nc1nc(Nc2ccc3cn[nH]c3c2)c(C(N)=O)c(=O)[nH]1)C(N)=O` [Example 35, (R)-4-(1H-indazol-6-ylamino)-2-(1-amino-4-methyl-1-oxopentan-2-ylamino)-6-oxo-1,6-dihydropyrimidine-5-carboxamide], with below 1 nM.
Regarding `CC(C)[C@@H](Nc1nc(Nc2cccc(-c3ccccn3)c2)c(C(N)=O)c(=O)[nH]1)C(N)=O` [Example 96, (R)-2-(1-amino-3-methyl-1-oxobuan-2-ylamino)-6-oxo-4-(3-(pyridin-2-yl)phenylamino)-1,6-dihydropyrimidine-5-carboxamide], the IC50 fell in the range of 1 to 10 nM.
Then `CC(C)C[C@@H](Nc1nc(Nc2ccc3ncccc3c2)c(C(N)=O)c(=O)[nH]1)C(N)=O` [Example 13, (R)-2-(1-amino-4-methyl-1-oxopentan-2-ylamino)-6-oxo-4-(quinolin-6-ylamino)-1,6-dihydropyrimidine-5-carboxamide], with below 1 nM.
On to `CC(C)C[C@@H](Nc1nc(Nc2cccc(OC(F)(F)F)c2)c(C(N)=O)c(=O)[nH]1)C(N)=O` [Example 101, (R)-2-(1-amino-4-methyl-1-oxopentan-2-ylamino)-4-(3-(trifluoromethoxy)phenylamino)-6-oxo-1,6-dihydropyrimidine-5-carboxamide], for which the IC50 fell in the range of 1 to 10 nM.
Then `CC(C)C[C@@H](Nc1nc(Nc2cnc3ccccc3c2)c(C(N)=O)c(=O)[nH]1)C(N)=O` [Example 108, (R)-2-(1-amino-4-methyl-1-oxopentan-2-ylamino)-6-oxo-4-(quinolin-3-ylamino)-1,6-dihydropyrimidine-5-carboxamide], with below 1 nM; and `COc1ccc(Nc2nc(N[C@H](CC(C)C)C(N)=O)[nH]c(=O)c2C(N)=O)cc1` [Example 89, (R)-2-(1-amino-4-methyl-1-oxopentan-2-ylamino)-4-(4-methoxyphenylamino)-6-oxo-1,6-dihydropyrimidine-5-carboxamide], with 1 to 10 nM.
With `CC[C@@H](Nc1nc(Nc2cccc(OC)c2)c(C(N)=O)c(=O)[nH]1)C(N)=O` [Example 39, (R)-2-(1-amino-1-oxobutan-2-ylamino)-4-(3-(methoxy)phenylamino)-6-oxo-1,6-dihydropyrimidine-5-carboxamide], the half-maximal inhibitory concentration (IC50) lay within 1 to 10 nM.
Take `CCNc1nc(Nc2cccc(C)c2)c(C(N)=O)c(OCCCN)n1` [Example 52, 4-(m-toluidino)-6-(3-aminopropoxy)-2-(ethylamino)pyrimidine-5-carboxamide]: the half-maximal inhibitory concentration (IC50) is above 1000 nM.
Turning to `CC(C)C[C@@H](Nc1nc(Nc2ccn(C)n2)c(C(N)=O)c(=O)[nH]1)C(N)=O` [Example 117, (R)-2-(1-amino-4-methyl-1-oxopentan-2-ylamino)-4-(1-methyl-1H-pyrazol-3-ylamino)-6-oxo-1,6-dihydropyrimidine-5-carboxamide], the IC50 fell in the range of 100 to 1000 nM.
In the case of `CC(C)C[C@@H](Nc1nc(Nc2ccc3c(c2)OCO3)c(C(N)=O)c(=O)[nH]1)C(N)=O` [Example 79, (R)-2-(1-amino-4-methyl-1-oxopentan-2-ylamino)-4-(benzo[d][1,3]-dioxol-5-ylamino)-6-oxo-1,6-dihydropyrimidine-5-carboxamide] it was below 1 nM.
Then `CC[C@@H](Nc1nc(Nc2ccc(-n3cccn3)cc2)c(C(N)=O)c(=O)[nH]1)C(N)=O` [Example 24], with 1 to 10 nM; and `CC(C)C[C@@H](Nc1nc(Nc2ccc(-n3ccnc3)cc2)c(C(N)=O)c(=O)[nH]1)C(N)=O` [Example 115, (R)-2-(1-amino-4-methyl-1-oxopentan-2-ylamino)-4-(4-(1H-imidazol-1-yl)phenylamino)-6-oxo-1,6-dihydropyrimidine-5-carboxamide], with 1 to 10 nM.
In the case of `Cc1cc(C)cc(Nc2nc(NC[C@H](C)N)[nH]c(=O)c2C(N)=O)c1` [Example 54, (S)-2-(2-aminopropylamino)-4-(3,5-dimethylphenylamino)-6-oxo-1,6-dihydropyrimidine-5-carboxamide] it was above 1000 nM; in that of `Cc1cc(C)cc(Nc2nc(N[C@@H](C(N)=O)C(C)C)[nH]c(=O)c2C(N)=O)c1` [Example 2, (R)-2-(1-amino-3-methyl-1-oxobutan-2-ylamino)-4-(3,5-dimethylphenylamino)-6-oxo-1,6-dihydropyrimidine-5-carboxamide], 1 to 10 nM; in that of `Cc1cccc(Nc2nc(N[C@@H](C(N)=O)C(C)C)[nH]c(=O)c2C(N)=O)c1` [Example 10, (R)-2-(1-amino-3-methyl-1-oxobutan-2-ylamino)-6-oxo-4-(m-tolylamino)-1,6-dihydropyrimidine-5-carboxamide], 1 to 10 nM.
Take `Cc1cc(C)cc(Nc2nc(NC3CCCCC3N)[nH]c(=O)c2C(N)=O)c1` (centres unmarked) [Example 57, 2-(2-aminocyclohexylamino)-4-(3,5-dimethylphenylamino)-6-oxo-1,6-dihydropyrimidine-5-carboxamide]: the IC50 lay within 100 to 1000 nM.

What is called IC50 is the point on the concentration scale where inhibition reaches its midpoint.
